# From patent publication US20140057840A1, “ANTI-ANDROGENIC AGENT, SEBUM SECRETION BLOCKER, HAIR GROWTH STIMULANT, AND FOOD OR BEVERAGE” (LOTTE CO., LTD., priority 2009, published 2014)
# Test system: hamster sebocytes
# Assay: Sebocyte culture test (sebum synthesis amount, Oil Red O staining)
# Assay type: cell-based, golden hamster
# Conditions: concentration of 1×10^−5 M; microscopic observation and absorbance measurement; medium with 1×10^−6M testosterone; about 2 weeks
# Protocol: 1. The test was carried out using a hamster sebocyte culture kit KB-1000 (manufactured by KURABO […] LTD.).
# The sebocyte cell derived from the auricula of a normal golden hamster was inoculated in a 24-well plate in a density of 5.0×10^4 cells/well. During the test, the cell was cultured in medium containing testosterone in a concentration of 1×10^−6M.
# 2. The cell was cultured for several days until confluent, and the medium was exchanged with medium containing the test sample. The medium was exchanged with sample medium every other day and the culture was continued for about 2 weeks.
# In this test, cow's lactoferrin was prepared to be used as the lactoferrin, and spironolactone was used as a control.
# 3. Then, using a sebum synthesis assay kit SE-3001 (manufactured by KURABO […], LTD.), a WST-8 solution was added to each well and incubated for 30 minutes at 37° C. The supernatant was assayed at a wavelength of 450 nm, and the number of viable cell was counted.
# 4. Further, the supernatant was stained with Oil Red O and observed under a microscope while extracted with 100% isopropanol and measured at a wavelength of 520 nm for the lipid synthesis amount. […]
# Comparison of lipid synthesis amount per cell=absorbance B/absorbance A
# Absorbance A: cell number measured value (450 nm)
# Absorbance B: lipid synthesis amount measured value (520 nm)
smiles,measurement,value
"CC(=O)S[C@@H]1CC2=CC(=O)CC[C@]2(C)[C@H]2CC[C@@]3(C)[C@@H](CC[C@@]34CCC(=O)O4)[C@H]12 [spironolactone, reference compound]",sebum synthesis amount compared with the control,decreased sebum synthesis amount compared with the control
